Measured values published in ChEMBL document CHEMBL1201862, “PubChem BioAssay data set” (2004).
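Tested at 5 concentrations; 48 h exposure; 96-well plates; endpoints linearly interpolated, else capped at highest concentration. Here, GI50 denotes the concentration required for 50% inhibition of growth.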 Active and inactive are the calls of the source. Cut-off read from the data, not from the text of the source: active = GI50 up to about 1.1 µM and inactive = higher.

What was measured:
Assay in all cases: NCI-60 cell line screen, 48 h
SK-MEL-28 = system: SK-MEL-28
T47D = system: T47D
OVCAR-4 = system: OVCAR-4
MDA-MB-231 = system: MDA-MB-231
SF-268 = system: SF-268
K562 = system: K562
SF-295 = system: SF-295
EKVX = system: EKVX
NCI-H226 = system: NCI-H226
Hs-578T = system: Hs-578T
SNB-75 = system: SNB-75
SK-MEL-5 = system: SK-MEL-5
NCI-H460 = system: NCI-H460
HOP-92 = system: HOP-92
Malme-3M = system: Malme-3M
NCI-H23 = system: NCI-H23
UACC-257 = system: UACC-257
OVCAR-8 = system: OVCAR-8
HCC 2998 = system: HCC 2998
SK-OV-3 = system: SK-OV-3

Measured: GI50

COc1c(OC)c(OC)c2c(=O)c(OC)c(-c3ccc4c(c3)OCO4)oc2c1OC
inactive: SK-MEL-28 > 100 µM | T47D 41.9 µM | OVCAR-4 > 100 µM | MDA-MB-231 > 100 µM | SF-268 > 100 µM | K562 64.7 µM | SF-295 > 100 µM | EKVX 82.8 µM | NCI-H226 > 100 µM | Hs-578T > 100 µM | SNB-75 65.3 µM | SK-MEL-5 44.8 µM | NCI-H460 > 100 µM | HOP-92 1.48 µM | Malme-3M > 100 µM | NCI-H23 > 100 µM | UACC-257 > 100 µM | OVCAR-8 61 µM | HCC 2998 > 100 µM | SK-OV-3 > 100 µM

COC(=O)/C=C1/OC(c2ccccc2)=C(Cl)C1=O
inactive: SK-MEL-28 21.1 µM | T47D 19.1 µM | OVCAR-4 20.7 µM | MDA-MB-231 18.8 µM | SF-268 19.5 µM | K562 6.07 µM | SF-295 27.7 µM | EKVX 19.5 µM | NCI-H226 27.5 µM | Hs-578T 21.5 µM | SNB-75 20.1 µM | SK-MEL-5 14.9 µM | NCI-H460 25 µM | HOP-92 20 µM | Malme-3M 18.4 µM | NCI-H23 19.4 µM | UACC-257 24.9 µM | OVCAR-8 21.3 µM | HCC 2998 20.2 µM | SK-OV-3 31.6 µM
